According to ChEMBL document CHEMBL2040782 (Eur J Med Chem, 2012):
pIC50: −log10 of the molar value.

Columns and labels:
[1] = system: Rattus norvegicus; assay: Wake promoting activity in EEG/EMG Sprague-Dawley rat model assessed as slow wave sleep and rapid eye movement sleep time at 100 mg/kg, ip measured up to 3 hrs (reference value: 65 +/- 9 mins); assay type: functional; conditions: route intraperitoneal
[2] = target: Sodium-dependent serotonin transporter (Rattus norvegicus, UniProt P31652); assay: Inhibition of rat SERT-mediated serotonin reuptake
[3] = target: Cytochrome P450 2C19 (Homo sapiens, UniProt P33261); assay: Inhibition of CYP2C19; assay type: ADME
[4] = target: T1, Cytochrome P450 1A2 (Homo sapiens, UniProt P05177); assay: (§1) Inhibition of CYP1A2 ( at 100 uM); assay type: ADME; conditions: 100 µM
T1 sequence (P05177 whole entry): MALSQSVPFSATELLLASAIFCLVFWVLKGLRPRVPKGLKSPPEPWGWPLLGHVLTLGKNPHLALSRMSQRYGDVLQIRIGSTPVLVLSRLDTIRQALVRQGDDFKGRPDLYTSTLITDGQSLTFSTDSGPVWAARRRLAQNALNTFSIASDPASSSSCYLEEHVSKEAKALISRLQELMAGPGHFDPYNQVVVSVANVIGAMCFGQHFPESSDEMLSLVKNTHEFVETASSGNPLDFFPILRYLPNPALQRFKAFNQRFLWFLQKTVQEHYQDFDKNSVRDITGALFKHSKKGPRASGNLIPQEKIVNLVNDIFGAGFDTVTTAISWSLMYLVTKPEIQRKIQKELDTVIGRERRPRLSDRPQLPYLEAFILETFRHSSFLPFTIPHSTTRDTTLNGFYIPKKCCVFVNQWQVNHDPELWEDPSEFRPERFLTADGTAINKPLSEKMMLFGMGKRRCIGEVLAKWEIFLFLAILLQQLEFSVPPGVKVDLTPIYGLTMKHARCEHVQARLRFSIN

[5] = target: T2, Sodium-dependent dopamine transporter (Rattus norvegicus, UniProt P23977); assay: Inhibition of rat DAT
[6] = target: Cytochrome P450 2D6 (Homo sapiens, UniProt P10635); assay: Inhibition of CYP2D6; assay type: ADME
[7] = target: Transporter (Rattus norvegicus, UniProt Q63380); assay: Inhibition of rat NET-mediated norepinephrine reuptake
[8] = target: T3, Cytochrome P450 1A1 (Homo sapiens, UniProt P04798); assay: (§2) Inhibition of CYP1A1 ( at 100 uM); assay type: ADME; conditions: 100 µM
T3 sequence (P04798 whole entry): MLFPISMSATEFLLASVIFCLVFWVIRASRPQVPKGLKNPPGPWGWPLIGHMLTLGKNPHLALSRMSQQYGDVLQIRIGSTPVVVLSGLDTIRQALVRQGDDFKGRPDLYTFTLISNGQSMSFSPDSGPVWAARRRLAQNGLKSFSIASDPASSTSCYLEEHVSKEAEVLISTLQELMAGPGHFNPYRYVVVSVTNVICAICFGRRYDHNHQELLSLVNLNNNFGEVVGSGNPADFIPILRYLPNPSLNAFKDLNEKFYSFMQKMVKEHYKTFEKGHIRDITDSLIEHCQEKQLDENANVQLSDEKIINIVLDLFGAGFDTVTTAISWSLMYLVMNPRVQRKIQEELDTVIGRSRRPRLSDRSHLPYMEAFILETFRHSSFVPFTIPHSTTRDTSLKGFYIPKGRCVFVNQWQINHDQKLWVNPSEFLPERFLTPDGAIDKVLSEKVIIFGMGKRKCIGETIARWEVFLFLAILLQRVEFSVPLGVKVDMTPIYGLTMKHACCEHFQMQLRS

[9] = target: Cytochrome P450 3A4 (Homo sapiens, UniProt P08684); assay: Inhibition of CYP3A4; assay type: ADME
[10] = target: Cytochrome P450 3A5 (Homo sapiens, UniProt P20815); assay: Inhibition of CYP3A5; assay type: ADME
[11] = target: T2, Sodium-dependent dopamine transporter; assay: Inhibition of rat DAT-mediated dopamine reuptake
[12] = target: Sodium-dependent serotonin transporter (Rattus norvegicus) (UniProt P31652); assay: Inhibition of rat SERT at 10 uM
[13] = target: Transporter (Rattus norvegicus) (UniProt Q63380); conditions: 10 uM
Description: Inhibition of rat NET at 10 uM

[14] = target: T4, CYP1A2 (Homo sapiens, UniProt P05177); assay: as §1; assay type: ADME
T4 sequence (P05177 whole entry): T1 sequence (P05177 whole entry)

[15] = target: T5, CYP1A1 (Homo sapiens, UniProt P04798); assay: as §2; assay type: ADME
T5 sequence (P04798 whole entry): T3 sequence (P04798 whole entry)

[16] = target: Cytochrome P450 2C9 (Homo sapiens, UniProt P11712); assay: Inhibition of CYP2C9; assay type: ADME
[17] = target: CYP3A5 (Homo sapiens, UniProt P20815); assay: Inhibition of CYP3A5 at 10 uM; assay type: ADME
[18] = target: CYP2D6 (Homo sapiens, UniProt P10635); assay: Inhibition of CYP2D6 at 10 uM; assay type: ADME
[19] = target: CYP3A4 (Homo sapiens, UniProt P08684); assay: Inhibition of CYP3A4 at 10 uM; assay type: ADME
Sequence of CYP3A4 (P08684 whole entry): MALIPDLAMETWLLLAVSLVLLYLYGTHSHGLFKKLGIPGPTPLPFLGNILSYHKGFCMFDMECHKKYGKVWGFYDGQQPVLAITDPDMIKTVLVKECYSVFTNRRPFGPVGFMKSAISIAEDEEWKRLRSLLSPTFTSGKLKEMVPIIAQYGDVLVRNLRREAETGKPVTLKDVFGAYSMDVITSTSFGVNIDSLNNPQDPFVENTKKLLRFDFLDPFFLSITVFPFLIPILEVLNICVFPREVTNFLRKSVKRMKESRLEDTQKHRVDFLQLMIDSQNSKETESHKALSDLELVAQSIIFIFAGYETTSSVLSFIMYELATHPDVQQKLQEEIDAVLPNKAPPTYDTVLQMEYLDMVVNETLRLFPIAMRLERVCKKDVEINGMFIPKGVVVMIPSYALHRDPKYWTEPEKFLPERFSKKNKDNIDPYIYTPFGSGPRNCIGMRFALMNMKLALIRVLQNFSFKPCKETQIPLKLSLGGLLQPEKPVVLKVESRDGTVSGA

T2 sequence (P23977 whole entry): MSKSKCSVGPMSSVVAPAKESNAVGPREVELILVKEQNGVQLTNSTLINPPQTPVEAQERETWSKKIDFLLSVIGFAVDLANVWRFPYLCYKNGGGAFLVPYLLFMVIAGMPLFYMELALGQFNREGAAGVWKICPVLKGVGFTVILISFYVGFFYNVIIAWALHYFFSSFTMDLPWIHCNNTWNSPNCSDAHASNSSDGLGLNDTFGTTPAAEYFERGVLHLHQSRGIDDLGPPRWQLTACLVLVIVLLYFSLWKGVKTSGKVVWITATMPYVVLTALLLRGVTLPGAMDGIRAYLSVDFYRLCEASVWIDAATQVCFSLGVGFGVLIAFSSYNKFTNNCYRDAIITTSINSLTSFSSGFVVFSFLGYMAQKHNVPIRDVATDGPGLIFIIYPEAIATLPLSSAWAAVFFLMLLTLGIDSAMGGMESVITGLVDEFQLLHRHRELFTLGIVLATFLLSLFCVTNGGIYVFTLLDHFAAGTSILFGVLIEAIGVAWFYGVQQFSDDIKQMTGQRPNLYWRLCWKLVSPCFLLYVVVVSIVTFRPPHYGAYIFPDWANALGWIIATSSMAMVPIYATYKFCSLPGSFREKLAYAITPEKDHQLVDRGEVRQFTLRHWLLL
Sequence of Cytochrome P450 2D6 (P10635 whole entry): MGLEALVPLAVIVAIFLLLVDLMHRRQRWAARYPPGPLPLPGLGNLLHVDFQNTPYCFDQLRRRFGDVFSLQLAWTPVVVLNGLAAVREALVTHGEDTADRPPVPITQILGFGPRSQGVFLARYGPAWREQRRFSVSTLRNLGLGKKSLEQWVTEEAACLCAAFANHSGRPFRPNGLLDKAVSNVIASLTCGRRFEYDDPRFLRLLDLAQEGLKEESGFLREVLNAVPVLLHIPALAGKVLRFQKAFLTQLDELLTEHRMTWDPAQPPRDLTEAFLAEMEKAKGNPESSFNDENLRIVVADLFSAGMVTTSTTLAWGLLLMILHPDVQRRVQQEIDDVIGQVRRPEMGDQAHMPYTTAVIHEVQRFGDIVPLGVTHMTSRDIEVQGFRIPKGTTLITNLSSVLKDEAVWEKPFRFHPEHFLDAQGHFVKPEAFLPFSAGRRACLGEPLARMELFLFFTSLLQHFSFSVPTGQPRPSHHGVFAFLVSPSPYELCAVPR
Sequence of Transporter (Q63380 whole entry): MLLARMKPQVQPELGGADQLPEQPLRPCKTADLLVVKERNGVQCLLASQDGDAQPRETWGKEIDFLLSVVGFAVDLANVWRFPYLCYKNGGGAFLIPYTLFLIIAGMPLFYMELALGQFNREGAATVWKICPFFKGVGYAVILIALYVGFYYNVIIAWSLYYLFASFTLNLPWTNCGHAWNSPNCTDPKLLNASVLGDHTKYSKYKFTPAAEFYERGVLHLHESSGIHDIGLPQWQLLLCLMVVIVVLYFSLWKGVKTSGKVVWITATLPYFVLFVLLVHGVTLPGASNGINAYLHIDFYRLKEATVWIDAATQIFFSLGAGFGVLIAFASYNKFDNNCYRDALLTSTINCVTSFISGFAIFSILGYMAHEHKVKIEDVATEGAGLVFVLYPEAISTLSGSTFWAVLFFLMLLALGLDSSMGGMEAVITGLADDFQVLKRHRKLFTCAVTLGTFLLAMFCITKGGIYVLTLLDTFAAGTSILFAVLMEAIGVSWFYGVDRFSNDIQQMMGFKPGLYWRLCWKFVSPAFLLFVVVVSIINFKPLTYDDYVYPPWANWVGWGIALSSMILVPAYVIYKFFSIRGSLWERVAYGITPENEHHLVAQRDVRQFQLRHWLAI
Sequence of Transporter (Rattus norvegicus) (Q63380 as listed by the source): as the sequence (Q63380 whole entry) above
Sequence of Cytochrome P450 3A5 (P20815 whole entry): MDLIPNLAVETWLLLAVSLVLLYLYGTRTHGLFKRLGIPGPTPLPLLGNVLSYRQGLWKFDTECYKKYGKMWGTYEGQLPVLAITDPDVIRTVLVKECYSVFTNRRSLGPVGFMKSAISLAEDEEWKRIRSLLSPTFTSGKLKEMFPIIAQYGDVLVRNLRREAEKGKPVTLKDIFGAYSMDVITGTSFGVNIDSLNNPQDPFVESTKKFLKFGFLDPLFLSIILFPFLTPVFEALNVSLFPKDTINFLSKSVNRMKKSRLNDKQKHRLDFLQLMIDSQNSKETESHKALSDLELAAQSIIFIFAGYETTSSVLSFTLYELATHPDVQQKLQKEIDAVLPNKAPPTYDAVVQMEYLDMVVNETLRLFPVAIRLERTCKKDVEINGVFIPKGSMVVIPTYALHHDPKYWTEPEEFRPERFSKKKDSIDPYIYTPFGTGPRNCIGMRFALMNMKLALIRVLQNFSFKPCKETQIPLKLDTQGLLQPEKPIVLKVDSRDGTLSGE
Sequence of Cytochrome P450 2C19 (P33261 whole entry): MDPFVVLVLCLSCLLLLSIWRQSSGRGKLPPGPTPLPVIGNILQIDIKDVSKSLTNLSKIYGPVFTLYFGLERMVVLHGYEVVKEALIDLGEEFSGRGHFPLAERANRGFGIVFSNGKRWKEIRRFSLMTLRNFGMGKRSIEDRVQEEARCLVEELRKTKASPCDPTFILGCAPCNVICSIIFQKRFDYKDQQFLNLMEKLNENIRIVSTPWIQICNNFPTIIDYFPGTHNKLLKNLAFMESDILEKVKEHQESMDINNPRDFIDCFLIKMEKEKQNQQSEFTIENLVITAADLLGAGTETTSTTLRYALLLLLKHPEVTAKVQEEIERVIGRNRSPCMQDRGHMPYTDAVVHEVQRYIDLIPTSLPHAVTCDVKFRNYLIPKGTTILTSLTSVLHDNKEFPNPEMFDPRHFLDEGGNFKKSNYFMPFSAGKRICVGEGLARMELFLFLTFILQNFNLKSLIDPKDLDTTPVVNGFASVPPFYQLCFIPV
Sequence of Cytochrome P450 3A4 (P08684 whole entry): as the sequence (P08684 whole entry) above
Sequence of Sodium-dependent serotonin transporter (P31652 whole entry): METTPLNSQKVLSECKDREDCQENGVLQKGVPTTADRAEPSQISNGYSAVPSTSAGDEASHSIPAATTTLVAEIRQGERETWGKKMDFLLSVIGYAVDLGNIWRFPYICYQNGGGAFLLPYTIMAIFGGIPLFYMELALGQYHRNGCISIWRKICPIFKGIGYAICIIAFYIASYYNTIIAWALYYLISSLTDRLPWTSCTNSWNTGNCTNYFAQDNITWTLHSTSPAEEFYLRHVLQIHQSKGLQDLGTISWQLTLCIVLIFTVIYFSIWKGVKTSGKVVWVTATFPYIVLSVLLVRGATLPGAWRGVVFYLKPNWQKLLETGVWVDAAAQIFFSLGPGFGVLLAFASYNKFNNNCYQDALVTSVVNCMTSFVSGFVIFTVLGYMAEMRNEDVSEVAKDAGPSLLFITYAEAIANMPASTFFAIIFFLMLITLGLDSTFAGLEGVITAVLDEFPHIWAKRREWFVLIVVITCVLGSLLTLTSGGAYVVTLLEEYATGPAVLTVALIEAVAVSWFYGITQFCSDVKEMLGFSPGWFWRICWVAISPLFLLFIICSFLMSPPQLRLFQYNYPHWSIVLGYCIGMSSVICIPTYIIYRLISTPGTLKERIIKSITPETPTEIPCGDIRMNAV
Sequence of Sodium-dependent serotonin transporter (Rattus norvegicus) (P31652 whole entry): as above
Sequence of CYP2D6 (P10635 whole entry): as the sequence (P10635 whole entry) above
Sequence of CYP3A5 (P20815 whole entry): as the sequence (P20815 whole entry) above

Compound `NC(=O)C[S+]([O-])Cc1ccc(Oc2ccc(Cl)c(Cl)c2)cc1` (stereo unspecified) has a Time [1] of 88 min.
`NC(=O)C[S+]([O-])Cc1ccccc1Oc1ccc(F)cc1` (racemic) gave a Time [1] of 123 min.
Compound `NC(=O)C[S+]([O-])Cc1ccccc1Oc1ccc(Cl)cc1` (racemic) has a Time [1] of 165 min.
`NC(=O)C[S+]([O-])Cc1ccccc1Oc1cccc(Cl)c1Cl` (racemic) showed a Time [1] of 120 min.
Compound `NC(=O)C[S+]([O-])Cc1ccccc1Oc1ccc(Cl)cc1Cl` (racemic) has a Time [1] of 74 min.
In the case of `NC(=O)C[S+]([O-])Cc1ccccc1Oc1cc(Cl)cc(Cl)c1` (racemic), the Time [1] was 117 min.
For `NC(=O)C[S+]([O-])Cc1ccccc1Oc1ccc(Cl)c(Cl)c1` (racemic), the Time ([1]; 100 mg/kg) was 180 min.
Compound `NC(=O)C[S+]([O-])Cc1ccccc1Oc1ccc(F)c(Cl)c1` (racemic) has a Time [1] of 160 min.
Work on `NC(=O)C[S+]([O-])Cc1ccccc1Oc1ccc(Cl)c(F)c1` (racemic) yielded a Time [1] of 176 min.
`NC(=O)C[S+]([O-])Cc1ccccc1Oc1ccc2ccccc2c1` (racemic) showed a Time [1] of 131 min.
`NC(=O)C[S+]([O-])Cc1ccccc1Oc1ccc(Cl)c(Cl)c1` (single isomer, unassigned; (+)) [listing 1 of 2 here] was tested, and the pIC50 [2] was 4.48, the pIC50 [3] was 4.70 and the “inhibition (INH)” value [4] was 18%. The pIC50 [5] was 6.05, the pIC50 [6] was 4.05 and the pIC50 [7] was 5.51. The “inhibition (INH)” value [8] was 18%, the pIC50 [9] was 4.49 and the pIC50 [10] was 4.49. It also gave a Time ([1]; 100 mg/kg) of 167 min and a pIC50 [11] of 5.96.
`NC(=O)C[S+]([O-])Cc1ccccc1Oc1ccc(Cl)c(Cl)c1` (single isomer, unassigned; (+)) [listing 2 of 2 here] was tested, and the inhibition [12] was 24% and the inhibition [13] was 39%.
In the case of `NC(=O)C[S+]([O-])Cc1ccccc1Oc1ccc(Cl)c(Cl)c1` (single isomer, unassigned; (-)) [listing 1 of 2 here], the pIC50 [2] was 4.51, the pIC50 [3] was 4.52 and the inhibition at 100 µM [14] was 10%. The pIC50 [5] was 6.70, the pIC50 [6] was 3.97 and the pIC50 [7] was 5.89. It also gave an inhibition at 100 µM [15] of 10%, a pIC50 [9] of 4.40 and a pIC50 [10] of 4.40. The Time ([1]; 100 mg/kg) was 168 min, the pIC50 [11] was 5.96 and the pIC50 [16] was 3.67.
`NC(=O)C[S+]([O-])Cc1ccccc1Oc1ccc(Cl)c(Cl)c1` (single isomer, unassigned; (-)) [listing 2 of 2 here] showed an inhibition [12] of 30% and an inhibition [13] of 48%.
`NC(=O)C[S+]([O-])C(c1ccccc1)c1ccccc1` (stereo unspecified) [MODAFINIL] showed an inhibition at 10 µM [17] of under 10%, a Time [1] of 117 min and an inhibition at 10 µM [18] of under 10%. The inhibition at 10 µM [19] was under 10%.
